In ChEMBL document CHEMBL1201862, “PubChem BioAssay data set” (2004):
Activity calls are given as the source filed them.

What was measured:
[1] = tested on: Streptococcus sp. 'group A'; assay: Streptococcus pyogenes SK(-)GAS viability under kanamycin – luminescence, BacTiterGlo, confirmation, counter-screen for streptokinase expression inhibitor project, dose response (AID 1900); format: functional, organism-based
[2] = NIH-3T3 fibroblast cytotoxicity, dose response, cytotoxicity control, cell-based, fluorescence, Alamar Blue, secondary assay (AID 2327); format: functional;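 further: NIH-3T3 mouse fibroblasts cultured with fluconazole at 8 µg/mL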
[3] = Luminescence Cell-Based Dose Response HTS to Identify Inhibitors of 5'UTR Stem-Loop Driven Prion Protein mRNA Translation in H4 Neuroglioblastoma Cells. [Related pubchem assays: 1827 (Project Summary), 1813 (Primary HTS)]; format: functional
[4] = Counterscreen for AddAB inhibitors: absorbance-based bacterial cell-based high throughput dose response assay for inhibitors of bacterial viability. [Related pubchem assays (depositor defined):AID435030, AID449728, AID449731, AID488942, AID488955, AID488956]; format: functional
INS1 = assay: INS-1E survival protection against cytokine death – cell-based, luminescence, retest, dose response (AID 449756); format: functional; conditions: Rattus norvegicus;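 further: cell death triggered by IL-1 beta plus TNF-alpha plus IFN-gamma mixture; protective hits raise ATP signal compared with cytokine alone wells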
Protein RecA = target: T1, Protein RecA (Mycobacterium tuberculosis, UniProt P9WHJ3); assay: Fluorescence Cell-Free Homogeneous Dose Retest to Identify Inhibitors of RecA-Intein Splicing Activity. [Related pubchem assays (depositor defined):AID2097, AID2223, AID489010, AID492950]; format: functional
T1 sequence (P9WHJ3 whole entry): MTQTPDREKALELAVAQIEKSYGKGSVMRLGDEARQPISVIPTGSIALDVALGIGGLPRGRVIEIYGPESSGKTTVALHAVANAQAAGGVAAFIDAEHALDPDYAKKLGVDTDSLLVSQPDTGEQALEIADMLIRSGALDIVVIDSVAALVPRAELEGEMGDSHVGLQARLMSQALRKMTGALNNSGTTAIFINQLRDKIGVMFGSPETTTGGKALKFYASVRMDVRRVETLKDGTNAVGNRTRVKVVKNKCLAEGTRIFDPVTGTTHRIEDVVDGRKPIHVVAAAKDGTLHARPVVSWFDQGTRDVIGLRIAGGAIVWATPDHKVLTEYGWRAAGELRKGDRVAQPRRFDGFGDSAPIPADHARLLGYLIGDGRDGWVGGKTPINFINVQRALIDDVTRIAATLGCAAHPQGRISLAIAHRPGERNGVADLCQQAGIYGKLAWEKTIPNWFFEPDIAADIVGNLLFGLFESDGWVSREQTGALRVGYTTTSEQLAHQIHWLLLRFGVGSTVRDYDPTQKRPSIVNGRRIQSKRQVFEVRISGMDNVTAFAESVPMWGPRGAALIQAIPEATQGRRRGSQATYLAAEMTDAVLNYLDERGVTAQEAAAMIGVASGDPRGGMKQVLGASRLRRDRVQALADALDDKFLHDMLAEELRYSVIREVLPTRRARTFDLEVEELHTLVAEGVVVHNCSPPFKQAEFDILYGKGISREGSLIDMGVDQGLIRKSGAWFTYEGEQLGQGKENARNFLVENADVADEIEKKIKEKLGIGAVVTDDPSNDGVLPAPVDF

[5] = activation of miR-122 Renilla sensor silencing – cell-based, Huh7 psiCHECK-miR122, Renilla luciferase, cherry-picked, dose response (AID 651956); format: functional;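 further: huh7 hepatoma cells stably carrying a psiCHECK-2 miR-122 sensor plasmid; renilla luciferase signal reporting endogenous miR-122 activity after 48 h compound exposure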
SUMO-activating enzyme = SUMO-activating enzyme (Homo sapiens, UniProt Q9UBT2); assay: blockers of UBC9-mediated SUMO conjugation – biochemical, AlphaScreen, SUMOylation inhibitor project, confirmation (AID 2018); format: functional
Sequence of SUMO-activating enzyme (Q9UBE0 whole entry): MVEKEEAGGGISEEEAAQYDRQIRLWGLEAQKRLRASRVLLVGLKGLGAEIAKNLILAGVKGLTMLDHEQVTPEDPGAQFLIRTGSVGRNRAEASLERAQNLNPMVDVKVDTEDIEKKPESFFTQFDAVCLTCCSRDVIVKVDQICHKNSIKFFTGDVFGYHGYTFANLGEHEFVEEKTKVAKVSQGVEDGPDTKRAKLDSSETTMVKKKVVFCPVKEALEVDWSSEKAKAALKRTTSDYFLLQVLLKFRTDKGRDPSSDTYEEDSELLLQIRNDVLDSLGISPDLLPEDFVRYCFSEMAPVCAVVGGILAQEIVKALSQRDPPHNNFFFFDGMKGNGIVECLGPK
Sequence of SUMO-activating enzyme (Q9UBT2 whole entry): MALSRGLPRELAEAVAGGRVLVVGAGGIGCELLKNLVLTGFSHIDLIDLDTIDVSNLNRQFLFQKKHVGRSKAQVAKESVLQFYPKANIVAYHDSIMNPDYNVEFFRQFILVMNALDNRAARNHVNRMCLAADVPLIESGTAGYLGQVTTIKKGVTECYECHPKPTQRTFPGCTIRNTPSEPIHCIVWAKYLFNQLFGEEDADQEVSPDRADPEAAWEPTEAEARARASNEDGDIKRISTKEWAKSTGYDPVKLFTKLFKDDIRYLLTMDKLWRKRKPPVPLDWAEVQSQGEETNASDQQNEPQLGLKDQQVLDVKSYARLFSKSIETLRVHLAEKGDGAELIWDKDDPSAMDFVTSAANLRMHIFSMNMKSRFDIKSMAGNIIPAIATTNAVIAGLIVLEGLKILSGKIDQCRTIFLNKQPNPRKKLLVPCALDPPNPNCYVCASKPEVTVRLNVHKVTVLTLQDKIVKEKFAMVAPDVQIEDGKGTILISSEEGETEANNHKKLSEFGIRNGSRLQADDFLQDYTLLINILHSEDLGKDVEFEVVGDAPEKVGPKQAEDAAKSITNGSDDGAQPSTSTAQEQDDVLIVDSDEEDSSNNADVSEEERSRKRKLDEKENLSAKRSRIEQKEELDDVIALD

[6] = target: T2, Sentrin-specific protease 8 (Homo sapiens, UniProt Q96LD8); format: functional;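 further: kinetic enzyme assay of SENP8 cleaving a Nedd8 protein substrate, dose-response confirmation of screening hits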
T2 sequence (Q96LD8 whole entry): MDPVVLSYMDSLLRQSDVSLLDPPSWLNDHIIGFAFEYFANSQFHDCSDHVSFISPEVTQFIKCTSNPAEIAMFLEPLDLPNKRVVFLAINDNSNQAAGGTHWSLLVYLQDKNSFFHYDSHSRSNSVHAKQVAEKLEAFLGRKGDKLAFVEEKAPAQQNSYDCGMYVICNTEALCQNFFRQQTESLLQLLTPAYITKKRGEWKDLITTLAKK

[7] = target: Voltage-gated N-type calcium channel alpha-1B subunit/Amyloid beta A4 precursor protein-binding family A member 1 (Homo sapiens, UniProt Q00975+Q02410); format: protein assay
Sequence of Voltage-gated N-type calcium channel alpha-1B subunit/Amyloid beta A4 precursor protein-binding family A member 1 (Q00975 whole entry): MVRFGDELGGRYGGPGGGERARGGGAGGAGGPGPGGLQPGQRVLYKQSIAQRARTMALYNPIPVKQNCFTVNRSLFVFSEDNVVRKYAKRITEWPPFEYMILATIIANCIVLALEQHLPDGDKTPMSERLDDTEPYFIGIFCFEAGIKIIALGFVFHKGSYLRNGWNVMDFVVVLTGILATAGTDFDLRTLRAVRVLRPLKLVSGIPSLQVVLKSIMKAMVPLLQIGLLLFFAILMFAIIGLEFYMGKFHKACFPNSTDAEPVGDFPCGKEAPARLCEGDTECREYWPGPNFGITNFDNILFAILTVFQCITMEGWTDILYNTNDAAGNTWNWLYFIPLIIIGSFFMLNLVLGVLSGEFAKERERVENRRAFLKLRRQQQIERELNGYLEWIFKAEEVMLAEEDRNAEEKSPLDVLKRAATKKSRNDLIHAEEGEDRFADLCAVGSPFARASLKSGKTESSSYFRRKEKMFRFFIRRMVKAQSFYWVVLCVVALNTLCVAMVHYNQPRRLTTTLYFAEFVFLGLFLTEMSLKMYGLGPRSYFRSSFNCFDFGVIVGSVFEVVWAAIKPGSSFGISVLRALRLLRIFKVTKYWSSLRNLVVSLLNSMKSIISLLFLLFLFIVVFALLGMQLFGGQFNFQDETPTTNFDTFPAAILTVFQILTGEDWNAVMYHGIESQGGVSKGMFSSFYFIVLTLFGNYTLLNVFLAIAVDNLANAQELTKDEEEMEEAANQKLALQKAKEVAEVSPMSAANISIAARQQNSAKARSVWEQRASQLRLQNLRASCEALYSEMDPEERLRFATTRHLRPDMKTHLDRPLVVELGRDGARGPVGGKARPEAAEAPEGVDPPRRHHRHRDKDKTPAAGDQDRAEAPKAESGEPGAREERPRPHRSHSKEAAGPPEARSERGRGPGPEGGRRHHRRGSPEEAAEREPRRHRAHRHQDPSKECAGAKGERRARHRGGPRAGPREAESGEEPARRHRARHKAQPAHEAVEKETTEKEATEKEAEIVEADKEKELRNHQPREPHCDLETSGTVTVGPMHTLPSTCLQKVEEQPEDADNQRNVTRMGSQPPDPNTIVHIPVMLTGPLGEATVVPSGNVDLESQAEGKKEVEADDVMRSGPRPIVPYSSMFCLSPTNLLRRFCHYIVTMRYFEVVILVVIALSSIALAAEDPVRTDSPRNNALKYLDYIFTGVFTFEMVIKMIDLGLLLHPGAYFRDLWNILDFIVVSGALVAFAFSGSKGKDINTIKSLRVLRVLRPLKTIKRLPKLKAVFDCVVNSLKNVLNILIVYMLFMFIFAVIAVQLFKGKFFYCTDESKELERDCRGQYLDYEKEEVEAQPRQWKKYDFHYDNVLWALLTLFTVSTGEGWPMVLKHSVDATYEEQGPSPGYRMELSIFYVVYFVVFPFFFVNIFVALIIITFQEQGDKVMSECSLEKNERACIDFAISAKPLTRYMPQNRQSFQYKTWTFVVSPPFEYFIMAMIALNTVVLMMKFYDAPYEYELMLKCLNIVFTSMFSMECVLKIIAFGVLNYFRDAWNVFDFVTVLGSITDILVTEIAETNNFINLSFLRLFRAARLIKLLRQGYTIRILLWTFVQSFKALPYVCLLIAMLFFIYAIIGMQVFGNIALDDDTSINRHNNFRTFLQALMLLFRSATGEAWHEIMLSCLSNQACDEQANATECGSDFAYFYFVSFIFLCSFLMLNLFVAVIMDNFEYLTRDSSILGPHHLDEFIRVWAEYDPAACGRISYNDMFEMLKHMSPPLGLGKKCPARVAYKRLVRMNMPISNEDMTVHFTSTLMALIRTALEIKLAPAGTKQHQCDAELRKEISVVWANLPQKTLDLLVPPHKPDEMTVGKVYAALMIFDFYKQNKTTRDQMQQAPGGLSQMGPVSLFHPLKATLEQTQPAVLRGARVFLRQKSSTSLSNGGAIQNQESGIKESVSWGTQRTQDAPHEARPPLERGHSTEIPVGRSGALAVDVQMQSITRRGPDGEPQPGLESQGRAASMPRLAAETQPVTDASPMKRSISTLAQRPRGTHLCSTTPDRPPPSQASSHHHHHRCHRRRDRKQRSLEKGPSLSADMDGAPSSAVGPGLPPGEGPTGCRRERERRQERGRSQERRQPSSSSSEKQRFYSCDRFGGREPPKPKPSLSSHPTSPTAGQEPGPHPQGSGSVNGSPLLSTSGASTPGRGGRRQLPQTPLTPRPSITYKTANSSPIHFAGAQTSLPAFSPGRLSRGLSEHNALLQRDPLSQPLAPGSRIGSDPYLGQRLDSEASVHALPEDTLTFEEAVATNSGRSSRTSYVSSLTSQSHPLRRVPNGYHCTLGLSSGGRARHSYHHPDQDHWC
Sequence of Voltage-gated N-type calcium channel alpha-1B subunit/Amyloid beta A4 precursor protein-binding family A member 1 (Q02410 whole entry): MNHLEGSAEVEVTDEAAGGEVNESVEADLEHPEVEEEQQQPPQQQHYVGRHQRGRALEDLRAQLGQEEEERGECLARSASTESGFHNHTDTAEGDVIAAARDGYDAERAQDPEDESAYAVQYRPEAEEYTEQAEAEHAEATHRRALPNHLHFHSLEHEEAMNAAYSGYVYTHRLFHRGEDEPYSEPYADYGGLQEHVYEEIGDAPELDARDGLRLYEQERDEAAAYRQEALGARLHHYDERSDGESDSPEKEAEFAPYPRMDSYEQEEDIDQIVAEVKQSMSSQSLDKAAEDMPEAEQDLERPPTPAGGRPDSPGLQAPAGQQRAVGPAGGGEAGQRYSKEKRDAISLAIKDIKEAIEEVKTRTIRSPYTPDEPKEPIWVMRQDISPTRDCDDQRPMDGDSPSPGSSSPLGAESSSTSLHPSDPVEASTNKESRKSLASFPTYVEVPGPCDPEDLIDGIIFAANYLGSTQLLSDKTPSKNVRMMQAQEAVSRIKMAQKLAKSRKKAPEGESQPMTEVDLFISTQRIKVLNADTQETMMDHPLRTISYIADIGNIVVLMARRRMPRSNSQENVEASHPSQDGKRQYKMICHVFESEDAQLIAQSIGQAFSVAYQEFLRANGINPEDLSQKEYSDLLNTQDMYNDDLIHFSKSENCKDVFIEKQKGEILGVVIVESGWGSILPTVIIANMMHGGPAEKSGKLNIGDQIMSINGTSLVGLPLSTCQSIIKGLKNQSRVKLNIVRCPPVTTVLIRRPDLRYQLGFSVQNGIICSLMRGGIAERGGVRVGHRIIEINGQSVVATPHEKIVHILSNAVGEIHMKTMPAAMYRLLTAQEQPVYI

Albumin = Albumin (Bos taurus, UniProt P02769); assay: Counterscreen for inhibitors of T-cell receptor (TCR)-CD3 interaction: Fluorescence-based biochemical high throughput dose response assay to identify inhibitors of T-cell receptor (TCR)-CD3 interaction using a TAMRA-labeled BSA probe.; format: functional
Sequence of Albumin (P02769 whole entry): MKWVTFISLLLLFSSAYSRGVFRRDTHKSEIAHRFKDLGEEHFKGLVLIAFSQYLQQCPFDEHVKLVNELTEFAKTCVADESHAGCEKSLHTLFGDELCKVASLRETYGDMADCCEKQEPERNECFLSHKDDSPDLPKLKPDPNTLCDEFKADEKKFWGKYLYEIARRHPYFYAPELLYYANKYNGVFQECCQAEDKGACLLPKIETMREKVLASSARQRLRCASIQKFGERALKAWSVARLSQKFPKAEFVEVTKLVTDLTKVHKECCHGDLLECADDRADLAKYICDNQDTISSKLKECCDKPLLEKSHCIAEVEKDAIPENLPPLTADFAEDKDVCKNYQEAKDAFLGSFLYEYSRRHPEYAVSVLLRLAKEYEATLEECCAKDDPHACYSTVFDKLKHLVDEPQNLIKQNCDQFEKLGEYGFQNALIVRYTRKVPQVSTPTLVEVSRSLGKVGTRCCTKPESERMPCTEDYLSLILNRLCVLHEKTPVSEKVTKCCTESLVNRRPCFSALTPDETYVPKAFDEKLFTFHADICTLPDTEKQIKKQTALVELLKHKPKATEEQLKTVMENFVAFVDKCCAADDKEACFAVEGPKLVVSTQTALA

cells [8] = format: functional, cell-based
[9] = target: T3, Short transient receptor potential channel 4 (Mus musculus, UniProt Q9QUQ5); assay: calcium entry via TRPC4 opening agents – cell-based, HEK293 TRPC4/mu-opioid, Fluo-4 calcium, dose response (AID 434937); format: functional
T3 sequence (Q9QUQ5 whole entry): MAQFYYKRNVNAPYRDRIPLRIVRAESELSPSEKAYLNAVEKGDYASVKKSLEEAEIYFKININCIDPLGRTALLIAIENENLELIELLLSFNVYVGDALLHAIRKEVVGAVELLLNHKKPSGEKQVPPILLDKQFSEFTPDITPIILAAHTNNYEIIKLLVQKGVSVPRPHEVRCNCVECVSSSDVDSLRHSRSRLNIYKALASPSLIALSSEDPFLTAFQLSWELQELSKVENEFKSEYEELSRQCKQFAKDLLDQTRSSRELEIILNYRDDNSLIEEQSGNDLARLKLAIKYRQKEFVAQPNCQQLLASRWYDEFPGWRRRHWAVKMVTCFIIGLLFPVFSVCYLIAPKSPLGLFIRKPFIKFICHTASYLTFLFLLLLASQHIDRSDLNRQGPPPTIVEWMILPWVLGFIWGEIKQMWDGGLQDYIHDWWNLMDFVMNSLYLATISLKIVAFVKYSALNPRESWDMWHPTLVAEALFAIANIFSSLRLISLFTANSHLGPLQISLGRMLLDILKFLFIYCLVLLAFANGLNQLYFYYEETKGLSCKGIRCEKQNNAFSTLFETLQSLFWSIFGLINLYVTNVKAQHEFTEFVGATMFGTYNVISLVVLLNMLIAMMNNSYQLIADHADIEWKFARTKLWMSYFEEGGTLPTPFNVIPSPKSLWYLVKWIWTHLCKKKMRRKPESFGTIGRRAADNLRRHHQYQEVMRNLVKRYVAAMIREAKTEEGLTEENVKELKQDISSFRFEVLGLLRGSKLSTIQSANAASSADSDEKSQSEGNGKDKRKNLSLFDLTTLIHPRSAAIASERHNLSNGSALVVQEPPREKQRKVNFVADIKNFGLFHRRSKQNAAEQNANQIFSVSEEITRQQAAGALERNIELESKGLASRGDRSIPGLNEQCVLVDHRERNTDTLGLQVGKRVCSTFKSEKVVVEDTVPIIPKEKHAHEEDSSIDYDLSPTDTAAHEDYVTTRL

cells [10] = format: functional, cell-based; remark: listed apart in the source

**Q.** With `O=C(Nc1cccc(NC(=O)c2ccccc2Cl)c1)c1ccc([N+](=O)[O-])o1` as the compound, how does the EC50 [1] read?
**A.** The EC50 was 4.47 µM (active).

**Q.** What about the EC50 [2] of the same compound?
**A.** The EC50 was 12.1 µM (inconclusive).

**Q.** What about the EC50 [3] of the same compound?
**A.** The EC50 was 9.73 µM (active).

**Q.** And the IC50 [4]?
**A.** Its IC50 is > 119 µM (inactive).

**Q.** And the AC50 (INS1)?
**A.** Its AC50 is 7.35 µM (active).

**Q.** With `COc1ccc(CC2=CC(=O)c3ccccc3C2=O)cc1` as the compound, how does the EC50 [1] read?
**A.** Its EC50 is 11.4 µM (active).

**Q.** And the EC50 (Protein RecA)?
**A.** Its EC50 is 3.37 µM (active).

**Q.** And the AC50 [5]?
**A.** Its AC50 is 20.7 µM (active).

**Q.** Which results are given for `c1coc(-c2nnc(-c3ccco3)nn2)c1`?
**A.** IC50 (SUMO-activating enzyme): 0.99 µM (active); EC50 (Protein RecA): 7.01 µM (active); IC50 [6]: 5.41 µM (active); IC50 [7]: 17.7 µM (active)

**Q.** For `Cn1c(O)c(/C=N/NC(=O)c2cc3ccccc3cc2O)c2ccccc21`, which IC50 (Albumin) is on record?
**A.** Its IC50 is > 94.1 µM (inactive).

**Q.** What about the EC50 [2] of the same compound?
**A.** The EC50 was > 160 µM (inconclusive).

**Q.** What about the EC50 (cells [8]) of the same compound?
**A.** Its EC50 is 128 µM (active).

**Q.** And the EC50 [9]?
**A.** The EC50 was 5.96 µM (active).

**Q.** And the IC50 [4]?
**A.** Its IC50 is > 119 µM (inactive).

**Q.** And the EC50 (cells [10])?
**A.** The EC50 was 4.07 µM (active).
